Experimental data taken from article PMC7125202, “Targeting of radioactive platinum-bisphosphonate anticancer drugs to bone of high metabolic activity” (Scientific Reports, 2020).
Entries after “also recorded” stand apart in the source; their conditions may differ.

Legend:
[1] = In vivo biodistribution of cold Pt-species, Pt quantified by ICP-MS; set-up: species or system C57Bl/6N mice; conditions: 24 h after i.v. injection
Protocol: The Pt-BP and Pt(NO3)2(en) complexes were administered intravenously in the tail vein of C57BL/6N mice (n = 5 per each platinum complex). Sterile saline solution (0.9% NaCl) was used to dissolve platinum complexes. The concentration of injected Pt-BP or Pt(NO3)2(en) solutions was 2.5 mM platinum, calculated based on the maximum tolerated dose for cisplatin of 6 mg per kg body weight of the mice[37]. The mice were euthanized with CO2 24 h after injection, after which blood (approximately 600 mg per mouse), liver, spleen, kidneys, heart, lungs, and bones (femur, humerus, tibia, and spine) were harvested. Approximately half of the tissues were prepared for inductively coupled plasma-mass spectrometry (ICP-MS) analysis by digestion in 65% (v/v) nitric acid at 75 °C for approximately three days until the tissues were digested completely. Each tissue was cut into three samples and the samples were weighed prior to digestion in nitric acid. The digested solutions were diluted with up to 6 ml of Milli-Q water to obtain 2% (v/v) nitric acid in order to measure platinum concentrations by ICP-MS (X series I, Thermo Electron Corporation). The detection limit for determining platinum concentration with ICP-MS was 1 ppb. The standard solutions were prepared from 1000 mg·1^−1 platinum ICP standard Certipur (1.70341.0100, Merck) ranging from 1 ppb to 2500 ppb. The measured isotopes for platinum were ^194Pt, ^195Pt, ^196Pt, and ^198Pt. Furthermore, scandium (^45Sc) was added as an internal standard, which was prepared with 1000 mg·1^−1 scandium standard Certipur (1.19513.0100, Merck) to correct for matrix effects and long-term fluctuations of the measurement signal. The platinum concentrations in the various tissues were calculated relative to 1 mg of the specific tissue and represented as ng Pt/mgtissue. Three replicates of Pt-BP and Pt(NO3)2(en) solutions with volumes and platinum concentrations identical to the solutions injected to the mice (200 µl and 2.5 mM platinum, respectively) were also analyzed for their platinum content using ICP-MS as control. The percentage of injected dose (%ID) of Pt-BP and Pt(NO3)2(en) in each mouse tissue 24 h after injection was calculated by dividing the total amount of platinum per tissue through the total amount of platinum detected in the control solutions[52].

[2] = tested on: genomic DNA; test: Pt-DNA adducts quantification using High Resolution ICP-MS; assay type: in vivo, C57Bl/6N mice; conditions: 24 h after i.v. injection
Source text: The remaining half of the tissues from all mice were dissected and weighed for DNA extraction. DNA was isolated using DNeasy Blood & Tissue Kit (Qiagen, USA) for soft tissue and ChargeSwitch® gDNA Plant Kit (Thermofisher, USA) for bone samples. The DNA was digested with DNase I Solution (Thermofisher, USA) and filtered using 0.2 µm acrodisc GHP before analysis for Pt content using high resolution-ICP-MS (Element2, Thermo Finnigan). The detection limit for determining the platinum concentration was 2 ng/l. The standard solutions were prepared from 1000 mg·1^−1 platinum ICP standard Certipur (1.70341.0100, Merck) ranging from 5 ppt to 10 ppb. The selected isotopes for platinum were ^194Pt and ^195Pt. Furthermore, thallium (Tl) was added as an internal standard and determined at a molecular mass of 205 Da, which was prepared using a 1000 mg·1^−1 thallium standard (CGTL-1, Inorganic Ventures) to correct for matrix effects and long-term fluctuations of the analytical signal. The Pt-DNA adduct concentration is represented as percentage of Pt involved in adduct formation to the total amount of Pt accumulated in the specific tissue.

[3] = tested on: zebrafish embryos; test: Phenotypic assessment of drug-treated zebrafish embryos; assay type: in vivo, zebrafish (Danio rerio); conditions: up to a concentration of 100 µM, until 2 days post treatment
Protocol: The zebrafish (Danio rerio) strains were kept under standard conditions (28 °C in E3 buffer) until 48 hours post fertilization (hpf) as described previously. All animal experiments were conducted at larval stages before the point of independent feeding and were in agreement with the animal protection law (Tierschutzgesetz).
48 hpf wildtype embryos were separated into 6 groups (n = 20 embryos/group), i.e., control (untreated) and embryos treated with 5 µM, 10 µM, 50 µM, and 100 µM Pt-BP as well as 30 µM cisplatin. Both types of compounds were added externally to the medium and the embryos were incubated at 33 °C for the duration of the experiment. The embryos were assessed each day for phenotypic toxicity until 2 days post treatment (48 hpt) and imaged live in an Olympus MVX10 microscope.

[4] = tested on: lateral line neuromast hair cells; test: Ototoxicity assay, DASPEI staining; assay type: in vivo, zebrafish (Danio rerio); conditions: 48 h post treatment, 5, 10 and 50 µM
Protocol: The lateral line neuromast hair cells in embryos were stained with a vital dye to analyse the loss of hair cells after Pt-BP treatment. Cisplatin was used as a control, as it was known to affect hair cells in humans. The fluorescent dye 2-[4-(dimethylamino)styryl]-N-ethylpyridinium iodide (DASPEI) [Molecular Probes, Eugene, OR] was used to stain hair cells in the neuromast as described previously. Larvae were incubated in embryo medium containing 0.005% DASPEI for 15 min, anesthetized in Tricaine MS222 (10 µg/ml) for 5 min, rinsed once in fresh embryo medium, and imaged using Vertebrate automated screening technology (VAST, Union Biometrica), combined with high-speed and super-resolution Zeiss cell observer spinning disk confocal system. The quantification of number of neuromast hair cells in the treated embryos was done manually with confocal microscopy (Zeiss LSM780).

Q: For `NCCN.NCCN.O.O.O.O=S(=O)([O-])O.[NH3+]CC1(O)P2(=O)[O][Pt][O]P1(=O)[O][Pt][O]2` (centres unmarked) [Pt-BP, dinuclear bis<ethylenediamineplatinum(II) > -2-amino-1-hydroxyethane-1,1-diyl-bisphosphonate complex], which “higher affinity for bone compared to Pt(NO3)2(en)” value [1] is on record?
A: The value was 4.5 fold.

Q: What about the “Pt uptake in hard tissue” value ([1]; 2.5 mM Pt) of the same molecule?
A: The value was 12.18 ± 0.56 %ID/g.

Q: And the “Pt uptake in kidney” value ([1]; 2.5 mM Pt)?
A: The value was 5.70 ± 0.15 %ID/g.

Q: And the “Pt uptake in liver” value ([1]; 2.5 mM Pt)?
A: Its value is 2.34 ± 0.17 %ID/g.

Q: And the “Pt uptake in spleen” value ([1]; 2.5 mM Pt)?
A: The value was 1.22 ± 0.12 %ID/g.

Q: And the “Pt accumulation in hard tissue (bone)” value ([1]; 2.5 mM Pt, normalized for tissue weight)?
A: The value was ~ 3 ng Pt/mg tissue.

Q: What about the “Pt-DNA adduct formation relative to total Pt uptake, all tissues except kidney and spleen” value [2] of the same molecule?
A: Its value is less than 0.5%.

Q: And the “Pt-DNA adduct formation relative to total Pt uptake, kidney” value [2]?
A: Its value is 2.8%.

Q: And the “Pt-DNA adduct formation relative to total Pt uptake, spleen” value [2]?
A: Its value is 1.4%.

Q: And the visible phenotypic effects [3]?
A: Its visible phenotypic effects is “did not show any phenotypic abnormality; also recorded: no visible phenotypic effects”.

Q: And the “ototoxic effect (lateral line neuromast hair cell quantification)” value [4]?
A: The value was “dose-dependent ototoxic effect”.
